Earlier results in US10927398B2, “Compositions for CYP450 phenotyping using saliva samples” (Concordia University, Inc., priority 2015, dated 2021).
Read-outs that look alike come from different tables or passages of the source.

How the values were obtained:
[1] = cited from earlier work
[2] = tested on: plasma protein; details: Table of Exemplary Drugs, cited from earlier work
[3] = cited from earlier work; remark: listed apart in the source
[4] = Table of Exemplary Drugs, CYP3A4
[5] = Table of Exemplary Drugs, CYP2D6
[6] = Table of Exemplary Drugs, CYP1A2
[7] = Table of Exemplary Drugs, CYP2C19
[8] = Table of Exemplary Drugs, CYP2C9

For `O=C1Nc2ccc(Cl)cc2[C@@](C#CC2CC2)(C(F)(F)F)O1` [Efavir enz (Sustiva), Efavir enz], the “ORAL BIOAVAILABILITY” value [1, 4] is given as 40-45%, the “PLASMA PROTEIN BINDING” value ([2]; CYP3A4) is given as 99.5-99.75% ^ and the “HALF-LIFE” value [3, 4] is given as 40 to 55 h.

In the case of `COc1ccc(C(=O)Nc2ccccc2CCC2CCCCN2C)cc1` (stereo not drawn) [Encainide], the “ORAL BIOAVAILABILITY” value [1, 5] is listed as 25-90%, the “PLASMA PROTEIN BINDING” value ([2]; CYP2D6) is listed as 70.5-78% ^ and the “HALF-LIFE” value [3, 5] is listed as 1.5 to 11.3 h.

In the case of `C#Cc1cccc(Nc2ncnc3cc(OCCOC)c(OCCOC)cc23)c1` [Erlotinib], the “ORAL BIOAVAILABILITY” value [1, 6] is listed as 60-100%, the “ORAL BIOAVAILABILITY” value [1, 4] is listed as 60% and the “PLASMA PROTEIN BINDING” value ([2]; CYP1A2) is listed as 93%. For the same molecule, the “PLASMA PROTEIN BINDING” value ([2]; CYP3A4) was 93% and the “HALF-LIFE” value [3, 6] was 36.2 h.

For `CC[C@H]1OC(=O)[C@H](C)[C@@H](O[C@H]2C[C@@](C)(OC)[C@@H](O)[C@H](C)O2)[C@H](C)[C@@H](O[C@@H]2O[C@H](C)C[C@H](N(C)C)[C@H]2O)[C@](C)(O)C[C@@H](C)C(=O)[C@H](C)[C@@H](O)[C@]1(C)O` [Erythromycin], the “ORAL BIOAVAILABILITY” value [1, 4] is listed as 30-65%, the “PLASMA PROTEIN BINDING” value ([2]; CYP3A4) is listed as 90% and the “HALF-LIFE” value [3, 4] is listed as 1 to 1.5 h.

For `COc1ccc2nc([S@@+]([O-])Cc3ncc(C)c(OC)c3C)[nH]c2c1` [Esomeprazole], the “ORAL BIOAVAILABILITY” value [1, 7] is listed as 90%, the “PLASMA PROTEIN BINDING” value ([2]; CYP2C19) is listed as 97% and the “HALF-LIFE” value [3, 7] is listed as 1.5 h.

For `Clc1ccc2c(c1)C(c1ccccc1)=NCc1nncn1-2` [Estazolam (ProSom), Estazolam], the “ORAL BIOAVAILABILITY” value [1, 4] is listed as 93%, the “PLASMA PROTEIN BINDING” value ([2]; CYP3A4) is listed as 93% and the “HALF-LIFE” value [3, 4] is listed as 10 to 24 h.

In the case of `C[C@]12CC[C@@H]3c4ccc(O)cc4CC[C@H]3[C@@H]1CC[C@@H]2O` [Estradiol], the “ORAL BIOAVAILABILITY” value [1, 6] is given as 43%, the “PLASMA PROTEIN BINDING” value ([2]; CYP1A2) is given as over 95% and the “HALF-LIFE” value [3, 6] is given as 36 h.

For `C#C[C@]1(O)CC[C@H]2[C@@H]3CCc4cc(O)ccc4[C@H]3CC[C@@]21C` [Ethinyl Estradiol], the “ORAL BIOAVAILABILITY” value [1, 4] is given as 38-48%, the “PLASMA PROTEIN BINDING” value ([2]; CYP3A4) is given as 97-98% ^ and the “HALF-LIFE” value [3, 4] is given as 7 to 36 h.

In the case of `C=C1C[C@@H]2[C@H](CC[C@]3(C)C(=O)CC[C@@H]23)[C@@]2(C)C=CC(=O)C=C12` [Exemestane (Aromasin), Exemestane], the “ORAL BIOAVAILABILITY” value [1, 4] is listed as 42%, the “PLASMA PROTEIN BINDING” value ([2]; CYP3A4) is listed as 90% and the “HALF-LIFE” value [3, 4] is listed as 24 h.

For `O=C(NCC1CCCCN1)c1cc(OCC(F)(F)F)ccc1OCC(F)(F)F` (stereo not drawn) [Flecainide], the “ORAL BIOAVAILABILITY” value [1, 5] is listed as 70-95%, the “PLASMA PROTEIN BINDING” value ([2]; CYP2D6) is listed as 40% and the “HALF-LIFE” value [3, 5] is listed as 20 h.

In the case of `CNCCC(Oc1ccc(C(F)(F)F)cc1)c1ccccc1` (stereo not drawn) [Fluoxetine], the “ORAL BIOAVAILABILITY” value [1, 8] is given as 60-80%, the “ORAL BIOAVAILABILITY” value [1, 5] is given as 60-80% and the “PLASMA PROTEIN BINDING” value ([2]; CYP2C9) is given as 94.5%^. For the same molecule, the “PLASMA PROTEIN BINDING” value ([2]; CYP2D6) was 94.5%^, the HALF-LIFE [3, 8] was 96 to 140 h and the HALF-LIFE [3, 5] was 96 to 140 h.

For `CCN(CC)CCN1C(=O)CN=C(c2ccccc2F)c2cc(Cl)ccc21` [Flurazepam (Dalmane), Flurazepam], the “ORAL BIOAVAILABILITY” value [1, 4] is given as 83%, the “PLASMA PROTEIN BINDING” value ([2]; CYP3A4) is given as 97.2%^ and the “HALF-LIFE” value [3, 4] is given as 2.3 h.

For `CC(C)n1c(/C=C/C(O)CC(O)CC(=O)O)c(-c2ccc(F)cc2)c2ccccc21` (stereo not drawn) [Fluvastatin], the “ORAL BIOAVAILABILITY” value [1, 8] is listed as 24%, the “PLASMA PROTEIN BINDING” value ([2]; CYP2C9) is listed as 98% and the “HALF-LIFE” value [3, 8] is listed as 2.5 h.

In the case of `Cc1ccc(S(=O)(=O)NC(=O)NN2CC3CCCC3C2)cc1` (stereo not drawn) [Gliclazide], the “ORAL BIOAVAILABILITY” value [1, 7] is listed as 80%, the “PLASMA PROTEIN BINDING” value ([2]; CYP2C19) is listed as 85-99% ^ and the “HALF-LIFE” value [3, 7] is listed as 8 to 12 h.

For `CCC1=C(C)CN(C(=O)NCCc2ccc(S(=O)(=O)NC(=O)N[C@H]3CC[C@H](C)CC3)cc2)C1=O` [Glimepiride], the “ORAL BIOAVAILABILITY” value [1, 8] is listed as 100%, the “PLASMA PROTEIN BINDING” value ([2]; CYP2C9) is listed as over 99% and the “HALF-LIFE” value [3, 8] is listed as 5 to 9.2 h.

In the case of `O=C(CCCN1CCC(O)(c2ccc(Cl)cc2)CC1)c1ccc(F)cc1` [Haloperidol], the “ORAL BIOAVAILABILITY” value [1, 6] is listed as 60%, the “ORAL BIOAVAILABILITY” value [1, 5] is listed as 60% and the “PLASMA PROTEIN BINDING” value ([2]; CYP1A2) is listed as 88.4-92.5% ^. The “PLASMA PROTEIN BINDING” value ([2]; CYP2D6) was 88.4-92.5% ^, the “HALF-LIFE” value [3, 6] was 14 to 37 h and the “HALF-LIFE” value [3, 5] was 14 to 37 h.

In the case of `COc1ccc2c3c1O[C@H]1C(=O)CC[C@H]4[C@@H](C2)N(C)CC[C@]314` [Hydrocodone], the “ORAL BIOAVAILABILITY” value ([1]; in vivo, po) is listed as 25%, the “PLASMA PROTEIN BINDING” value ([2]; CYP2D6) is listed as 19-45% ^ and the “HALF-LIFE” value ([3]; in vivo) is listed as 7 to 9 h.

In the case of `COc1cc(C(C)=O)ccc1OCCCN1CCC(c2noc3cc(F)ccc23)CC1` [Iloperidone], the “ORAL BIOAVAILABILITY” value [1, 5] is given as 96%, the “PLASMA PROTEIN BINDING” value ([2]; CYP2D6) is given as 95% and the “HALF-LIFE” value [3, 5] is given as 18 to 33 h.

For `COc1ccc2c(c1)c(CC(=O)O)c(C)n2C(=O)c1ccc(Cl)cc1` [Indomethacin], the “ORAL BIOAVAILABILITY” value [1, 7] is listed as 100%, the “PLASMA PROTEIN BINDING” value ([2]; CYP2C19) is listed as 99% and the “HALF-LIFE” value [3, 7] is listed as 4.5 h.

In the case of `CCCCC1=NC2(CCCC2)C(=O)N1Cc1ccc(-c2ccccc2-c2nnn[nH]2)cc1` [Irbesartan], the “ORAL BIOAVAILABILITY” value [1, 8] is given as 60-80%, the “PLASMA PROTEIN BINDING” value ([2]; CYP2C9) is given as 90% and the “HALF-LIFE” value [3, 8] is given as 11 to 15 h.

In the case of `COC(=O)C1=C(C)NC(C)=C(C(=O)OC(C)C)C1c1cccc2nonc12` (stereo not drawn) [Isradipine (DynaCirc), Isradipine], the “ORAL BIOAVAILABILITY” value ([1]; cell marked CR, Table of Exemplary Drugs, CYP3A4) is listed as “CR: 15-24%”, the “ORAL BIOAVAILABILITY” value ([1]; cell marked IR, Table of Exemplary Drugs, CYP3A4) is listed as “IR 90-95%;” and the “PLASMA PROTEIN BINDING” value ([2]; CYP3A4) is listed as 95%. The “HALF-LIFE” value [3, 4] was 8 h.
